Assay results reported in patent publication US20200306216A1, “CURE FOR ALZHEIMER'S DISEASE” (priority 2019, published 2020).

Experiment: Single-patient clinical case: combination therapy for Alzheimer's disease
Format: in vivo, human
Conditions: overall outcome as stated by applicant
Procedure: A patient suffering from significant memory loss and vision loss was evaluated for treatment. The patient suffered a gradual decline in both short-term and long-term memory over at least three years. The patient also complained about vision loss over a period of about six years. The patient scored 11 out of 30 on a mental status exam, indicating dementia or other cognitive impairment. A clinical psychologist determined that the patient was oriented to person, but poorly oriented to place and time. […] The patient acknowledged having anger problems. The patent denied having anxiety, mania, or depression but acknowledged occasional suicidal ideation. They denied having any current intent to harm […]. The patient's spouse reported that the patient would sometimes sit and rock back-and-forth. They also reported that the patient would sometimes hit their head when upset. There was no evidence that the patient suffered from delusions or hallucinations, and there was no evidence of agnosia. The patient previously had coronary artery bypass surgery and also suffered from type 2 diabetes mellitus for multiple decades. […] The patient also suffered from hepatitis C, but was not previously treated. It was determined that the patient was only able to perceive light in both eyes. The patient's loss of vision was due to glaucoma and diabetic retinopathy. […]

| SMILES | outcome of treatment of Alzheimer's disease |
| --- | --- |
| COc1cc2c(cc1OC)C(=O)C(CC1CCN(Cc3ccccc3)CC1)C2 (centres unmarked) [donepezil] | unsuccessful |
| CC12CC3CC(C)(C1)CC(N)(C3)C2 [memantine] | unsuccessful |
